Results: the Bradley open melting point set (2014)
Several values for one entry are separate records, joined by “and”; a condition that tells them apart may be missing. Equal values may be shown once.

Row | SMILES | melting point
1 | O=C(O)c1ccc([N+](=O)[O-])cc1 [p-nitrobenzoic_acid] | 241 °C
2 | O=[N+]([O-])c1ccc(O)cc1 [p-nitrophenol] | 115 °C
3 | O=C(O)c1ccc(-c2ccccc2)cc1 [p-phenylbenzoic_acid] | 227 °C
4 | c1ccc(-c2ccc(-c3ccccc3)cc2)cc1 [p-terphenyl] [listing 1 of 2 here] | 213 °C
5 | c1ccc(-c2ccc(-c3ccccc3)cc2)cc1 [p-terphenyl] [listing 2 of 2 here] | 214 °C
6 | Cc1ccc(C=O)cc1 [p-tolualdehyde] | -6 °C
7 | Cc1ccc(S(=O)(=O)O)cc1 [p-toluenesulfonic acid] | 104 °C
8 | [C-]#[N+]CS(=O)(=O)c1ccc(C)cc1 [p-toluenesulfonylmethyl isocyanide] [listing 1 of 2 here] | 112 °C
9 | [C-]#[N+]CS(=O)(=O)c1ccc(C)cc1 [p-toluenesulfonylmethyl isocyanide] [listing 2 of 2 here] | 112 °C
10 | Cc1ccc(C(=O)Cl)cc1 [p-toluoyl chloride] | -2 °C
11 | ClC(Cl)C(Cl)(Cl)Cl [pentachloroethane] | -29 °C
12 | O=[N+]([O-])c1c(Cl)c(Cl)c(Cl)c(Cl)c1Cl [pentachloronitrobenzene] | 144 °C
13 | O=C1CCCCCCCCCCCCCCO1 [pentadecanolide] | 35 °C
14 | ClCC(CCl)(CCl)CCl [pentaerythrityl tetrachloride] | 95 °C
15 | CCCCC=O [pentanal] | -91 °C
16 | CCCCC(=O)O [pentanoic_acid] | -34 °C
17 | C/C(C)=CCN2CC[C@@]1(C)c3cc(O)ccc3C[C@@H]2[C@@H]1C [pentazocin] | 146 °C
18 | FC(F)(F)C(F)(F)C(F)(F)C(F)(F)C(F)(F)C(F)(F)F [perfluorohexanes] | -90 °C
19 | [O-][I+3]([O-])([O-])O [periodic acid] | 128 °C
20 | c1ccc2c(c1)ccc1ccccc12 [phenanthracene] | 99 °C
21 | c1ccc2c(c1)ccc1ccccc12 [phenanthrene] [listing 1 of 2 here] | 99.2 °C and 101 °C and 99 °C
22 | CCN(CC)CCSC(=O)N(c1ccccc1)c1ccccc1 [phencarbamide] | 48 °C
23 | CCC1(c2ccccc2)C(=O)NC(=O)NC1=O [phenobarbital] [listing 1 of 2 here] | 175 °C
24 | CCC1(c2ccccc2)C(=O)NC(=O)NC1=O [phenobarbital] [listing 2 of 2 here] | 174 °C and 176 °C

Row | SMILES | melting point
25 | Oc1ccccc1 [phenol] | 41 °C
26 | c1ccc2c(c1)Oc1ccccc1S2 [phenoxathiin] | 57 °C
27 | O=C(O)COc1ccccc1 [phenoxyacetic acid] | 100 °C
28 | ON=C(c1ccccc1)c1ccccn1 [phenyl 2-pyridyl ketoxime] | 155 °C
29 | O=C1NC(=O)C(c2ccccc2)(c2ccccc2)N1 [phenytoin] | 296 °C and 295 °C
30 | O=C1OC(=O)c2ccccc21 [phthalic anhydride] | 132 °C
31 | N#Cc1ccccc1C#N [phthalonitrile] | 140 °C
32 | O=c1[nH]c2ccccc2n1C1CCN(CCCC(c2ccc(F)cc2)c2ccc(F)cc2)CC1 [pimozide] | 216 °C
33 | CC(C)NCC(O)COc1cccc2[nH]ccc12 (configuration not stated) [pindolol] | 170 °C
34 | C1CNCCN1 [piperazine, anhydrous] | 110 °C
35 | O=C(CO)[C@@]3(O)CC[C@H]2[C@@H]4CC\C1=C\C(=O)\C=C/[C@]1(C)[C@H]4C(=O)C[C@@]23C [prednisone] | 234 °C (2×) and 237 °C
36 | OC(CCN1CCCCC1)(c1ccccc1)c1ccccc1 [pridinol] | 120 °C
37 | CCC1(c2ccccc2)C(=O)NCNC1=O [primidone] | 282 °C
38 | CCC1(C(C)C)C(=O)NC(=O)NC1=O [probarbital] | 203 °C
39 | CCCN(CCC)S(=O)(=O)c1ccc(C(=O)O)cc1 [probenecid] | 199 °C
40 | CCCN(CC1CC1)c1c([N+](=O)[O-])cc(C(F)(F)F)cc1[N+](=O)[O-] [profluralin] | 32.5 °C
41 | O=C4\C=C2/[C@]([C@H]1CC[C@@]3([C@@H](C(=O)C)CC[C@H]3[C@@H]1CC2)C)(C)CC4 [progesterone] | 131 °C and 130 °C
42 | C=C(Br)CC1(C(C)C)C(=O)NC(=O)NC1=O [propallylonal] | 177 °C
43 | CCC(=O)OC(=O)CC [propionic anhydride] | -44 °C
44 | CCC#N [propionitrile] | -93 °C and -92 °C
45 | CC(C)NCC(O)COc1cccc2ccccc12 (configuration not stated) [propranolol] | 129 °C
46 | ON=Cc1ccccn1 [pyridine-2-carboxaldoxime] | 111 °C
47 | NC(=S)c1ccccn1 [pyridine-2-thiocarboxamide] | 123 °C
48 | ON=Cc1ccncc1 [pyridine-4-carboxaldoxime] | 132 °C

Row | SMILES | melting point
49 | c1cncnc1 [pyrimidine] | 21 °C
50 | C=C[C@H]1C[N@@]2CC[C@H]1C[C@@H]2[C@@H](O)c1ccnc2ccc(OC)cc12 [quinidine] [listing 1 of 2 here] | 174 °C
51 | C=C[C@H]1CN2CC[C@H]1C[C@H]2[C@H](O)c1ccnc2ccc(OC)cc12 [quinine] | 176 °C and 174 °C
52 | c1cc(OCC2CO2)cc(OCC2CO2)c1 (configuration not stated) [resorcinol diglycidyl ether] | 34 °C
53 | O/N=C/c1ccccc1O [salicylaldoxime] | 57 °C
54 | NC(=O)c1ccccc1O [salicylamide] [listing 2 of 2 here] | 140 °C
55 | O=C(Oc1ccccc1C(=O)O)c1ccccc1O [salicylsalicylic acid] | 135 °C
56 | Clc1ccc(C(Cn2ccnc2)OCc2csc3c(Cl)cccc23)c(Cl)c1 (configuration not stated) [sertaconazole] | 146 °C
57 | O=C1C[C@@H]2OCC=C3CN4CC[C@]56c7ccccc7N1[C@H]5[C@H]2[C@H]3C[C@H]46 [strychnine] | 280 °C
58 | OCC(O)c1ccccc1 (configuration not stated) [styrene glycol] | 68 °C
59 | O=C(O)CCCCCCC(=O)O [suberic_acid] | 144 °C
60 | O=C1CCC(=O)O1 [succinic anhydride] | 120 °C
61 | CC(=O)NS(=O)(=O)c1ccc(N)cc1 [sulfacetamide] | 183 °C
62 | Cc1cc(C)nc(NS(=O)(=O)c2ccc(N)cc2)n1 [sulfamethazine] | 176 °C
63 | Cc1noc(NS(=O)(=O)c2ccc(N)cc2)c1C [sulfisoxazole] | 191 °C and 194 °C
64 | CCN1CCCC1CNC(=O)c1cc(S(N)(=O)=O)ccc1OC (configuration not stated) [sulpiride] | 178 °C
65 | CCC(=C(c1ccccc1)c1ccc(OCCN(C)C)cc1)c1ccccc1 [tamoxifen] | 96 °C
66 | O=C(O)C(O)C(O)C(=O)O (configuration not stated) [tartaric acid] | 147 °C
67 | CN1C(C(=O)Nc2ccccn2)=C(O)c2sccc2S1(=O)=O [tenoxicam] | 211 °C
68 | CCNc1nc(NC(C)(C)C)nc(SC)n1 [terbutryn] | 105 °C
69 | CCNc1nc(NC(C)(C)C)nc(SC)n1 [terbutryne] | 104 °C
70 | CC(C)(C)OC(=O)C(C(=O)Cc1ccccc1)c1ccccc1 (configuration not stated) [tert-butyl 3-oxo-2,4-diphenylbutanoate] | 83 °C
71 | CC12CCC(=O)C=C1CCC1C2CCC2(C)C(O)CCC12 (configuration not stated) [testosterone] | 153 °C
72 | CCCCCCCCCCCCCC [tetradecane] | 6 °C

The next lines start with the values.

Row | melting point | SMILES
73 | 69 °C | Cc1ccc(S(=O)(=O)Cl)cc1 [p-toluenesulfonyl chloride]
74 | 118 °C | Cc1ccc(S(=O)(=O)CC(=O)O)cc1 [p-toluenesulfonylacetic acid]
75 | 204 °C | CC(C)(S)[C@@H](N)C(=O)O [penicillamine]
76 | 262 °C | OCC(CO)(CO)CO [pentaerythritol]
77 | 256 °C | c1ccc(C2=C(c3ccccc3)C(c3ccccc3)C(c3ccccc3)=C2c2ccccc2)cc1 [pentaphenylcyclopentadiene]
78 | 100 °C | c1ccc2c(c1)ccc1ccccc12 [phenanthrene] [listing 2 of 2 here]
79 | 139 °C | Nc1ccc(N=Nc2ccccc2)c(N)n1 [phenazopyridine]
80 | 101 °C | CCOc1ccc(NC(=O)CN)cc1 [phenocoll]
81 | -10 °C | O=CCc1ccccc1 [phenylacetaldehyde]
82 | 198 °C | CN1C(C(=O)Nc2ccccn2)=C(O)c2ccccc2S1(=O)=O [piroxicam] [listing 1 of 2 here]
83 | 200 °C and 199 °C | CN1C(C(=O)Nc2ccccn2)=C(O)c2ccccc2S1(=O)=O [piroxicam] [listing 2 of 2 here]
84 | -188 °C | CCC [propane]
85 | 178 °C | CC(CP(=O)(O)O)P(=O)(O)O (configuration not stated) [propylenediphosphonic acid]
86 | 11.5 °C (2×) and 12 °C (2×) and 13.8 °C | CC(=O)C(=O)O [pyruvic acid]
87 | 170 °C | C=C[C@H]1C[N@@]2CC[C@H]1C[C@@H]2[C@@H](O)c1ccnc2ccc(OC)cc12 [quinidine] [listing 2 of 2 here]
88 | 146 °C | OB(O)c1cccc2ncccc12 [quinoline-5-boronic acid]
89 | 30 °C | c1ccc2nccnc2c1 [quinoxaline]
90 | -7 °C | O=Cc1ccccc1O [salicylaldehyde]

Row | melting point | SMILES
91 | 142 °C | NC(=O)c1ccccc1O [salicylamide] [listing 1 of 2 here]
92 | 157 °C | O=C(O)c1ccccc1O [salicylic acid]
93 | 50 °C | Oc1ccccc1C=Nc1ccccc1 [salicylideneaniline]
94 | -75 °C | CCC(C)c1ccccc1 (configuration not stated) [sec-butylbenzene]
95 | 195 °C | COc1cc(/C=C/C(=O)O)cc(OC)c1O [sinapic acid]
96 | 24 °C | NCCCCNCCCN [spermidine]
97 | -31 °C | C=Cc1ccccc1 [styrene]
98 | 188 °C | OC[C@H]1O[C@@](CO)(O[C@H]2O[C@H](CO)[C@@H](O)[C@H](O)[C@H]2O)[C@@H](O)[C@@H]1O [sucrose]
99 | 252 °C and 256 °C and 254 °C | Nc1ccc(S(=O)(=O)Nc2ncccn2)cc1 [sulfadiazine]
100 | 204 °C | COc1cc(NS(=O)(=O)c2ccc(N)cc2)nc(OC)n1 [sulfadimethoxine]
101 | 236 °C | Cc1ccnc(NS(=O)(=O)c2ccc(N)cc2)n1 [sulfamerazine]
102 | 207 °C | COc1cc(C(=O)O)cc(OC)c1O [syringic acid]
103 | 116 °C | O=Cc1ccc(C=O)cc1 [terephthalaldehyde]
104 | 116 °C | O=Cc1ccc(C=O)cc1 [terephthaldicarboxaldehyde]
105 | -94 °C | CCOC(C)(C)C [tert-butyl ethyl ether]
106 | -109 °C | COC(C)(C)C [tert-butyl methyl ether]
107 | 55 °C | CCCCCCCCCCCCCC(=O)O [tetradecanoic acid]
